Experimental data published in US20010008892A1 (priority 1998, published 2001).
Read-outs that look alike come from different tables or passages of the source.

Assays:
[1] = test system: HIV; assay: Antiviral activity: inhibition of the cytopathic effect of HIV in MT4 cells; assay type: cell-based
Excerpt: (§1) The IC50 is the concentration of compound that gives 50% inhibition of the cytopathic effect of HIV. The LC50 is the concentration of compound at which 50% of the cells remain viable.

[2] = Cytotoxicity in MT4 cells (LC50, 50% of the cells remain viable); assay type: cell-based; details: human
Excerpt: as §1

[3] = target: HIV-1 protease (Human immunodeficiency virus type 1 group M subtype B, UniProt P04585); assay: Fluorogenic assay for screening inhibitors of HIV protease; details: for inhibition at 0.0005 µM: pH 4.5, read-out: % Inhib. (0.5 nM); for % Inhib. (0.5 nM): compound concentration 0.5 nM, fluorogenic substrate 1.3 μM, pH 4.5, 30° C.
Description: A compound of the invention is dissolved in DMSO. A small aliquot is diluted with DMSO to 100 times the final concentration desired for testing. The test is carried out in a 6×50 mm tube in a total volume of 300 microliters. The final concentrations of the components in the reaction buffer are: 125 mM sodium acetate, 1 M sodium chloride, 5 mM dithiothreitol, 0.5 mg/ml bovine serum albumin, 1.3 μM fluorogenic substrate, 2% (v/v) dimethylsulfoxide, pH 4.5. After addition of inhibitor, the reaction mixture is placed in the fluorometer cell holder and incubated at 30° C. for several minutes. The reaction is initiated by the addition of a small aliquot of cold HIV protease. The fluorescence intensity (excitation 340 nm, emmision 490 nM) is recorded as a function of time. The reaction rate is determined for the first six to eight minutes. The observed rate is directly proportional to the moles of substrate cleaved per unit time. The percent inhibition is 100×(1- (rate in presence of inhibitor)/(rate in absence of inhibitor)).
The test compounds were then tested at a concentration of 0.5 nM.

[4] = test system: MT4 cells; assay: Cytotoxicity in MT4 cells (LC50, 50% of the cells remain viable); assay type: cell-based; details: MT4 cells; concentration at which 50% of the cells remain viable
Excerpt: as §1

[5] = Human immunodeficiency virus 1, MT4 cells, 50% inhibition of the cytopathic effect of HIV, read-out: EC50
[6] = MT4 cells, 50% inhibition of the cytopathic effect of HIV, read-out: EC50

Molecule	EC50 [1, 5]	CC50 [2]	inhibition at 0.0005 µM [3]	EC50 ([1]; Human immunodeficiency virus 1, MT4)	CC50 ([2]; MT4 cells, concentration at which 50% of the cells remain viable, read-out: LC50 (the source's name))	EC50 [1, 6]	CC50 [4]	% Inhib. (0.5 nM) [3]
COc1cc(CN2CCN(C[C@@H](O)[C@H](Cc3ccccc3)NC(=O)[C@@H](NC(=O)N(C)Cc3csc(C(C)C)n3)C(C)C)[C@H](C(=O)NC(C)(C)C)C2)ccc1O [Example 14, N′-[(1S)-1-[[[(1S,2R)-3-[(2S)-2-[[(1,1-Dimethylethyl)amino]carbonyl]-4-[(4-hydroxy-3-methoxyphenyl)methyl]-1-piperazinyl]-2-hydroxy-1-(phenylmethyl)propyl]amino]carbonyl]-2-methylpropyl]-N-methyl-N-[2-(1-methylethyl)-4-thiazolylmethyl]urea]	41 nM	22700 nM	63%	–	–	–	–	–
CC(C)CN(C[C@@H](O)[C@H](Cc1ccccc1)NC(=O)[C@@H](NC(=O)N(C)Cc1csc(C(C)C)n1)C(C)C)C(=O)NC(C)(C)C [Example 26]	–	–	42%	817 nM	17400 nM	–	–	–
CC(C)c1nc(CN(C)C(=O)N[C@H](C(=O)N[C@@H](Cc2ccccc2)[C@H](O)CN2CC[C@@H](OCc3cncs3)C[C@H]2C(=O)NC(C)(C)C)C(C)C)cs1 [Example 32, N′-[(1S)-1-[[[(1S,2R)-3-[(2S,4R)-2-[[(1,1-Dimethylethyl)amino]carbonyl]-4-(5-thiazolylmethoxy)-1-piperidinyl]-2-hydroxy-1-(phenylmethyl)propyl]amino]carbonyl]-2-methylpropyl]-N-methyl-N-[2-(1-methylethyl)-4-thiazolylmethyl]urea]	15 nM	64100 nM	66%	–	–	–	–	–
CC(C)c1nc(CN(C)C(=O)N[C@H](C(=O)N[C@@H](Cc2ccccc2)[C@H](O)CN(C(C)C)S(=O)(=O)c2ccc(N)cc2)C(C)C)cs1 [Example 29, N′-[(1S)-1-[[[(1S,2R)-3-[[(4-Aminophenyl)sulfonyl](1-methylethyl)amino]-2-hydroxy-1-(phenylmethyl)propyl]amino]carbonyl]-2-methylpropyl]-N-methyl-N-[2-(1-methylethyl)-4-thiazolylmethyl]urea]	175 nM	31200 nM	64%	–	–	–	–	–
CC(C)[C@H](NC(=O)N(C)Cc1cncs1)C(=O)N[C@@H](Cc1ccccc1)[C@H](O)CN1CCN(Cc2cncs2)C[C@H]1C(=O)NC(C)(C)C [Example 23, N′-[(1S)-1-[[[(1S,2R)-3-[(2S)-2-[[(1,1-Dimethylethyl)amino]carbonyl]-4-(5-thiazolylmethyl)-1-piperazinyl]-2-hydroxy-1-(phenylmethyl)propyl]amino]carbonyl]-2-methylpropyl]-N-methyl-N-(5-thiazolylmethyl)urea]	259 nM	> 100000 nM	51%	–	–	–	–	–
COc1ccc(CN2CCN(C[C@@H](O)[C@H](Cc3ccccc3)NC(=O)[C@@H](NC(=O)OCc3cnc(C(C)C)s3)C(C)C)[C@H](C(=O)NC(C)(C)C)C2)cc1OC [Example 19, 2-(1-Methylethyl)-5-thiazolylmethyl-[(1S)-1-[[[(1S,2R)-3-[(2S)-4-[(3,4-dimethoxylphenyl)methyl]-2-[[(1,1-dimethylethyl)amino]carbonyl]-1-piperazinyl]-2-hydroxy-1-(phenylmethyl)propyl]amino]carbonyl]-2-methylpropyl]carbamate]	–	–	–	–	–	17 nM	20700 nM	51%
2-(1-Methylethyl)-4-thiazolylmethyl-(1S)-1-[[[(1S,2R)-3-[[(4-aminophenyl)sulfonyl](1-methylethyl)amino]-2-hydroxy-1-(phenylmethyl)propyl]amino]carbonyl]-2-methylpropyl]carbamate [Example 28]	–	–	–	–	–	11 nM	49500 nM	77%
COc1ccc(CN2CCN(C[C@@H](O)[C@H](Cc3ccccc3)NC(=O)[C@@H](NC(=O)OCc3csc(C)n3)C(C)C)[C@H](C(=O)NC(C)(C)C)C2)cc1OC [Example 16, 2-Methyl-4-thiazolylmethyl-[(1S)-1-[[[(1S,2R)-3-[(2S)-4-[(3,4-dimethoxylphenyl)methyl]-2-[[(1,1-dimethylethyl)amino]carbonyl]-1-piperazinyl]-2-hydroxy-1-(phenylmethyl)propyl]amino]carbonyl]-2-methylpropyl]carbamate]	–	–	–	–	–	10 nM	61700 nM	49%
CC(C)c1nc(COC(=O)N[C@H](C(=O)N[C@@H](Cc2ccccc2)[C@H](O)CN2CCN(Cc3ccc(F)cc3)C[C@H]2C(=O)NC(C)(C)C)C(C)C)cs1 [Example 3]	–	–	–	–	–	21 nM	15700 nM	64%
CC(C)c1nc(CN(C)C(=O)N[C@H](C(=O)N[C@@H](Cc2ccccc2)[C@H](O)CN2CCN(Cc3ccccc3)C[C@H]2C(=O)NC(C)(C)C)C(C)C)cs1 [Example 13, N′-[(1S)-1-[[[(1S,2R)-3-[(2S)-2-[[(1,1-Dimethylethyl)amino]carbonyl]-4-(phenylmethyl)-1-piperazinyl]-2-hydroxy-1-(phenylmethyl)propyl]amino]carbonyl]-2-methylpropyl]-N-methyl-N-[2-(1-methylethyl)-4-thiazolylmethyl]urea]	48 nM	60400 nM	66%	–	–	–	–	–
CC(C)c1ncc(CN(C)C(=O)N[C@H](C(=O)N[C@@H](Cc2ccccc2)[C@H](O)CN2C[C@H]3CCCC[C@H]3C[C@H]2C(=O)NC(C)(C)C)C(C)C)s1 [Example 31, N′-[(1S)-1-[[[(1S,2 R)-3-[(3S)-3-[[(1,1-Dimethylethyl)amino]carbonyl](4aα,8aα)-octahydro-2-isoquinolinyl]-2-hydroxy-1-(phenylmethyl)propyl]amino]carbonyl]-2-methylpropyl]-N-methyl-N-[2-(1-methylethyl)-5-thiazolylmethyl]urea]	–	–	–	–	–	58 nM	17200 nM	48%
CC(C)c1nc(CN(C)C(=O)N[C@H](C(=O)N[C@@H](Cc2ccccc2)[C@H](O)CN2CCN(Cc3cncs3)C[C@H]2C(=O)NC(C)(C)C)C(C)C)cs1 [Example 12, N′-[(1S)-1-[[[(1S,2R)-3-[(2S)-2-[[(1,1-Dimethylethyl)amino]carbonyl]-4-(5-thiazolylmethyl)-1-piperazinyl]-2-hydroxy-1-(phenylmethyl)propyl]amino]carbonyl]-2-methylpropyl]-N-methyl-N-[2-(1-methylethyl)-4-thiazolylmethyl]urea]	13 nM	70300 nM	61%	–	–	–	–	–
